Assay results taken from US20040197335A1, “Non-myeloablative tolerogenic treatment with tyrphostins” (priority 2003, published 2004).
pIC50: −log10 of the molar value. Where two headings read alike, the source gives them in different places.

Key:
Assay type in all cases: cell-based
[1] = test system: Human PBMC incubated with MHC-mismatched PBMC; experiment: One-way mixed lymphocyte reaction (primary MLR), [3H]TdR uptake; details: for pIC50: Table 5, some values marked (mean), read-out: IC 50% (inhibition of Primary MLR); for % response (alloreactive relative response, cpm with/without tyrphostin x100): FIG. 2, response without tyrphostin = 100%; for cpm: no tyrphostin 10,734 cpm
Description: Cell sources: Human peripheral blood mononuclear cells (PBMC) were obtained from healthy human donors after separation on Ficoll-Paque density gradient essentially as described in Boyum, A. Scand. J Lab. Invest. […] Reagents:
One-way mixed lymphocyte reaction (MLR assay): Responding cells derived from donor A (5×10^4) were cultured in round-bottom microwell plates with an equal number (5×10^4) of irradiated (6000 cGy) donor B PBMC with and without tyrphostins. […] During the last 18 hours of incubation, cultures were pulsed with 2 μCi of [^3H] TdR.
(§1) Harvesting and radioactivity determination: Harvesting was carried out by a multiple-sample cell harvester and radioactivity, expressed in counts per minutes (cpm), was determined in a liquid scintillation β-counter.
Human PBMC were incubated either with autologous or with MHC-mismatched PBMC in a one-way MLR assay, with and without various concentrations of tyrphostins, as is described hereinabove.
In this case, the alloreactive response without the tyrphostins was considered as 100% response. Percentage of response was calculated according to the following formula: b/a×100; where a=cpm in cultures without tyrphostin, b=cpm in cultures with tyrphostin.

[2] = test system: donor A anti-donor B-primed human PBMC vs donor B PBMC; experiment: Secondary MLR of alloantigen-primed PBMC against priming donor B; details: then removed, priming without tyrphostin = 100%
Description: (§2) PBMC from donor A (10×10^6) were stimulated with equal number of irradiated (6000 cGy) donor B PBMC, with and without tyrphostins, in a total volume of 20 ml culture medium supplemented with 10% heat inactivated human AB^+ serum (mixed lymphocyte culture, MLC). Cultures were placed vertically in 25 cm tissue culture flasks in a 5% CO2, humidified incubator at 37° C. After 10 days, cells were washed twice to remove the tyrphostin, and tested for their ability to respond in the MLR and the primary mitogenic response assay described hereinabove.
(§3) The alloreactivity of donor A anti-donor B-primed cells (5×10^4) was tested in a 6-day one-way primary MLR assay against third party unrelated donor C PBMC (10^5), or against donor A cells (background control). Cultures were placed in round-bottom microwell plates. On day 5, cultures were pulsed with 2 μCi [^3H] TdR/well for 16-18 hours and then harvested. […] After 48 hours at 37° C. in a 5% CO2 humidified incubator, cultures were pulsed with 2 μCi [^3H] TdR for another 16-18 hours and then harvested.
as §1
(§4) […] After 10 days the tyrphostin was removed and the primed cells were tested for their ability to respond in a secondary MLR assay against the priming (donor B) alloantigens, in a primary MLR assay against third party unrelated alloantigens (donor C), and to non-specific stimulation in a mitogenic assay. […] Percentage of response was calculated according to the formula described above.

[3] = test system: donor A anti-donor B-primed human PBMC vs third party unrelated donor C PBMC; experiment: Primary MLR of alloantigen-primed PBMC against third party unrelated donor C; details: then removed, priming without tyrphostin = 100%
Description: as §2, §3, §1, §4

[4] = test system: donor A anti-donor B-primed human PBMC stimulated with PHA; experiment: Mitogenic response (PHA) of alloantigen-primed PBMC; details: then removed, priming without tyrphostin = 100%
Description: as §2
Cultures were incubated for 48 hours in a total volume of 0.2 ml culture medium supplemented with 10% heat-inactivated human AB^+ serum at 37° C. in a 5% CO2 humidified incubator, pulsed for 16-18 hours with 1 μCi [^3H]TdR/well, and then harvested.
as §1, §4

[5] = test system: Human PBMC stimulated with phytohemagglutinin (PHA); experiment: Primary mitogenic response assay (PHA), [3H]TdR uptake; details: Table 6, tyrphostin 20 μM; for inhibition at 20 µM: Homo sapiens, PBMC, 96 h, mitogenic response; for cpm ± SD: PHA without tyrphostin 14,959±644, medium 155±37
Description: Mitogens: Phytohemagglutinin (PHA) and concanavalin A (Con-A) were dissolved in saline and diluted to their final concentration in culture medium. Anti-CD3 (OK3 stock solution 1 μg/ml) was diluted to 0.2 μg/ml final concentration in culture medium.
Responding PBMC cells (10^5) derived from donor A were cultured in flat-bottom microwell plates with and without tyrphostins, and with phytohemagglutinin (PHA) 1 μg/ml, or concanavalin A 18 μg/ml. […] During the last 18 hours of incubation, cultures were pulsed with 1 μCi of [^3H] TdR.
as §1

[6] = primed 10 days with tyrphostin 20 μM
[7] = primed 10 days with tyrphostin 40 μM
[8] = Table 2, primary MLR, tyrphostin 5 μM
[9] = Table 2, primary MLR, tyrphostin 10 μM
[10] = primed 10 days with tyrphostin 5 μM
[11] = primed 10 days with tyrphostin 10 μM
[12] = Homo sapiens, PBMC, 144 h, Table 2, primary MLR, tyrphostin 10 μM
[13] = Homo sapiens, PBMC, 144 h, Table 2, primary MLR, tyrphostin 50 μM
[14] = Table 2, primary MLR, tyrphostin 50 μM
[15] = primed 10 days with tyrphostin 30 μM

Compound | pIC50 ([1]; Homo sapiens, PBMC) | % Response to primary stimulator [2, 6] [%] | % Response to unrelated stimulator [3, 6] | % Response to PHA [4, 6] | cpm [1, 9] | inhibition at 20 µM [5] [%] | cpm ± SD [5] | % Response to primary stimulator [2, 11] [%] | % Response to unrelated stimulator [3, 11] | % Response to PHA [4, 11] [%] | inhibition at 50 µM [1, 13] [%] | cpm [1, 14] | other results
3-(3,5-dimethyl-H-pyrrol-2-yl-methylene)-2-oxo-2,3-dihydro-1H-indole-5-sulfonic acid dimethylamide [Tyr 16] |  |  |  |  |  |  |  |  |  |  |  |  | % Inhibition ([1]; Table 4, primary MLR, tyrphostin 1 μM): 62%; pIC50 [1]: 5.40
N#CC(=Cc1cc(O)c(O)c(CSCCCc2ccccc2)c1)C(=O)NCc1ccccc1 [Tyr 2, N-benzyl-2-cyano-3-[3,4-dihydroxy-5-(3-phenylpropylsulfanylmethyl)-phenyl]-acrylamide] | 4.66 | 280 | 257% | 900% |  |  |  |  |  |  |  |  | % response (alloreactive relative response, cpm with/without tyrphostin x100) ([1]; primary MLR, tyrphostin 10 μM): 73%; % response (alloreactive relative response, cpm with/without tyrphostin x100) ([1]; primary MLR, tyrphostin 50 μM): 0%; inhibition at 20 µM ([1]; Homo sapiens, PBMC, 144 h, Table 2, primary MLR, tyrphostin 20 μM): 73%; inhibition at 40 µM ([1]; Homo sapiens, PBMC, 144 h, Table 2, primary MLR, tyrphostin 40 μM): 95%; cpm ([1]; Table 2, primary MLR, tyrphostin 20 μM): 2,863 cpm; cpm ([1]; Table 2, primary MLR, tyrphostin 40 μM): 490 cpm; % Response to primary stimulator [2, 7]: 15%; % Response to unrelated stimulator [3, 7]: 138%; % Response to PHA [4, 7]: 254%
Cc1ccc(-c2nn(C(C)(C)C)c3ncnc(N)c23)cc1 [Tyr 3, 4-amino-1-t-butyl-3-(p-toluyl)pyrazolo[3,4-d]pyrimidine] |  | 24 ± 18 | 57 ± 44^ % | 30 ± 28^ % | 145 cpm | 98 | 300 ± 24 cpm | 24 ± 10 | 206 ± 99% | 110 ± 35 |  |  | cpm [1, 8]: 3,130 cpm; % Response to primary stimulator [2, 10]: 65%; % Response to unrelated stimulator [3, 10]: 55%; % Response to PHA [4, 10]: 26%
CC(C)(C)n1nc(-c2ccc(Cl)cc2)c2c(N)ncnc21 [Tyr 4, 4-amino-1-t-butyl-3-(p-chlorophenyl)pyrazolo[3,4-d]pyrimidine] |  | 6.5 ± 0.5 | 204 ± 18% | 40 ± 32^ % | 580 cpm | 98 | 230 ± 115 cpm | 13 ± 4.5 | 288 ± 122^ % | 120 ± 40 |  |  | cpm [1, 8]: 3,316 cpm; % Response to primary stimulator [2, 10]: 132%; % Response to unrelated stimulator [3, 10]: 145%; % Response to PHA [4, 10]: 29%
N#CC(=Cc1ccc(O)c(O)c1)C(=O)NCCCCc1ccccc1 [Tyr 5, 2-cyano-3-(3,4-dihydroxyphenyl)-N-(4-phenylbutyl)-acrylamide] | 4.47 |  |  |  | 6,413 cpm |  |  |  |  |  | 70 | 3,156 cpm | % response (alloreactive relative response, cpm with/without tyrphostin x100) ([1]; primary MLR, tyrphostin 10 μM): 32%; % response (alloreactive relative response, cpm with/without tyrphostin x100) ([1]; primary MLR, tyrphostin 50 μM): 13%; inhibition at 10 µM [1, 12]: 40%
N#CC(=Cc1cc(O)c(O)c(CSCCc2ccccc2)c1)C(=O)NCCCCc1ccccc1 [Tyr 6, 2-cyano-3-(3,4-dihydroxy-5-phenethylsulfanylmethyl-phenyl)-N-(4-phenylbutyl)-acrylamide] | 4.64 | 32 ± 0 | 220 ± 93% | 62 ± 42^ % | 4,431 cpm | 70 | 4,662 ± 104 cpm | 32 | 250% | 152 | 99 | 168 cpm | inhibition at 10 µM [1, 12]: 59%; % Response to primary stimulator [2, 15]: 46%; % Response to unrelated stimulator [3, 15]: 185%; % Response to PHA [4, 15]: 20%
N#CC(C#N)=Cc1ccc([N+](=O)[O-])c(O)c1 [Tyr 7, 2-(3-hydroxy-4-nitro-benzylidene)malononitrile] | 4.44 |  |  |  |  |  |  |  |  |  | 50 | 5,348 cpm | inhibition at 100 µM ([1]; Homo sapiens, PBMC, 144 h, Table 2, primary MLR, tyrphostin 100 μM): 95%; cpm ([1]; Table 2, primary MLR, tyrphostin 100 μM): 512 cpm
